Results published in ChEMBL document CHEMBL2413072, “Synthesis and in vitro anticancer studies of novel C-2 arylidene congeners of lantadenes” (2013).

Columns and labels:
Type in all cases: functional
HT-29 [1] = assay: Growth inhibition of human HT-29 cells by sulforhodamine B assay
NCI-H226 = assay: Growth inhibition of human NCI-H226 cells by sulforhodamine B assay
HL-60(TB) [2] = assay: Growth inhibition of human HL-60(TB) cells by sulforhodamine B assay
UACC-257 [3] = assay: Growth inhibition of human UACC257 cells assessed as cell growth at 10^-8 M by sulforhodamine B assay; settings: read-out: Activity
Malme-3M = assay: Growth inhibition of human MALME-3M cells assessed as cell growth at 10^-8 M by sulforhodamine B assay; settings: read-out: Activity
SNB-75 [4] = assay: Growth inhibition of human SNB75 cells assessed as cell growth at 10^-8 M by sulforhodamine B assay; settings: read-out: Activity
HCT-15 [5] = assay: Growth inhibition of human HCT15 cells assessed as cell growth at 10^-8 M by sulforhodamine B assay; settings: read-out: Activity
RPMI-8226 = assay: Growth inhibition of human RPMI8226 cells assessed as cell growth at 10^-8 M by sulforhodamine B assay; settings: read-out: Activity
HL-60(TB) [6] = assay: Growth inhibition of human HL-60(TB) cells assessed as cell growth at 10^-8 M by sulforhodamine B assay; settings: read-out: Activity
MDA-MB-468 [7] = assay: Growth inhibition of human MDA-MB-468 cells by sulforhodamine B assay
DU-145 [8] = assay: Growth inhibition of human DU145 cells by sulforhodamine B assay
MDA-MB-468 [9] = assay: Growth inhibition of human MDA-MB-468 cells assessed as cell growth at 10^-4 M by sulforhodamine B assay; settings: read-out: Activity
[10] = Growth inhibition of human Hs 578T cells assessed as cell growth at 10^-4 M by sulforhodamine B assay; settings: read-out: Activity
CAKI-1 = assay: Growth inhibition of human CAKI-1 cells assessed as cell growth at 10^-4 M by sulforhodamine B assay; settings: read-out: Activity
OVCAR-4 = assay: Growth inhibition of human OVCAR4 cells assessed as cell growth at 10^-4 M by sulforhodamine B assay; settings: read-out: Activity
UACC-257 [11] = assay: Growth inhibition of human UACC257 cells assessed as cell growth at 10^-4 M by sulforhodamine B assay; settings: read-out: Activity
SK-MEL-28 = assay: Growth inhibition of human SK-MEL-28 cells assessed as cell growth at 10^-4 M by sulforhodamine B assay; settings: read-out: Activity
SF-539 = assay: Growth inhibition of human SF539 cells assessed as cell growth at 10^-4 M by sulforhodamine B assay; settings: read-out: Activity
SF-295 = assay: Growth inhibition of human SF295 cells assessed as cell growth at 10^-4 M by sulforhodamine B assay; settings: read-out: Activity
NCI-H460 = assay: Growth inhibition of human NCI-H460 cells assessed as cell growth at 10^-4 M by sulforhodamine B assay; settings: read-out: Activity
MOLT-4 = assay: Growth inhibition of human MOLT4 cells assessed as cell growth at 10^-4 M by sulforhodamine B assay; settings: read-out: Activity
HL-60(TB) [12] = assay: Growth inhibition of human HL-60(TB) cells assessed as cell growth at 10^-4 M by sulforhodamine B assay; settings: read-out: Activity
T47D = assay: Growth inhibition of human T47D cells assessed as cell growth at 10^-6 M by sulforhodamine B assay; settings: read-out: Activity
PC-3 = assay: Growth inhibition of human PC3 cells assessed as cell growth at 10^-6 M by sulforhodamine B assay; settings: read-out: Activity
DU-145 [13] = assay: Growth inhibition of human DU145 cells assessed as cell growth at 10^-6 M by sulforhodamine B assay; settings: read-out: Activity
A498 [14] = assay: Growth inhibition of human A498 cells assessed as cell growth at 10^-6 M by sulforhodamine B assay; settings: read-out: Activity
SK-OV-3 [15] = assay: Growth inhibition of human SKOV3 cells assessed as cell growth at 10^-6 M by sulforhodamine B assay; settings: read-out: Activity
SNB-75 [16] = assay: Growth inhibition of human SNB75 cells assessed as cell growth at 10^-6 M by sulforhodamine B assay; settings: read-out: Activity
KM12 = assay: Growth inhibition of human KM12 cells assessed as cell growth at 10^-6 M by sulforhodamine B assay; settings: read-out: Activity
HCT-15 [17] = assay: Growth inhibition of human HCT15 cells assessed as cell growth at 10^-6 M by sulforhodamine B assay; settings: read-out: Activity
SR = assay: Growth inhibition of human SR cells assessed as cell growth at 10^-6 M by sulforhodamine B assay; settings: read-out: Activity
[18] = Growth inhibition of human Hs 578T cells assessed as cell growth at 10^-7 M by sulforhodamine B assay; settings: read-out: Activity
MCF7 = assay: Growth inhibition of human MCF7 cells assessed as cell growth at 10^-7 M by sulforhodamine B assay; settings: read-out: Activity
ACHN = assay: Growth inhibition of human ACHN cells assessed as cell growth at 10^-7 M by sulforhodamine B assay; settings: read-out: Activity
SK-OV-3 [19] = assay: Growth inhibition of human SKOV3 cells assessed as cell growth at 10^-7 M by sulforhodamine B assay; settings: read-out: Activity
IGROV-1 = assay: Growth inhibition of human IGROV1 cells assessed as cell growth at 10^-7 M by sulforhodamine B assay; settings: read-out: Activity
SW-620 = assay: Growth inhibition of human SW620 cells assessed as cell growth at 10^-7 M by sulforhodamine B assay; settings: read-out: Activity
HT-29 [20] = assay: Growth inhibition of human HT-29 cells assessed as cell growth at 10^-7 M by sulforhodamine B assay; settings: read-out: Activity
COLO 205 = assay: Growth inhibition of human COLO205 cells assessed as cell growth at 10^-7 M by sulforhodamine B assay; settings: read-out: Activity
HOP-62 = assay: Growth inhibition of human HOP62 cells assessed as cell growth at 10^-7 M by sulforhodamine B assay; settings: read-out: Activity
A549 = assay: Growth inhibition of human A549/ATCC cells assessed as cell growth at 10^-7 M by sulforhodamine B assay; settings: read-out: Activity
A498 [21] = assay: Growth inhibition of human A498 cells assessed as cell growth at 10^-8 M by sulforhodamine B assay; settings: read-out: Activity
OVCAR-8 = assay: Growth inhibition of human OVCAR8 cells assessed as cell growth at 10^-8 M by sulforhodamine B assay; settings: read-out: Activity
[22] = read-out: LC50 (the source's name)
[23] = read-out: pLC50 (the source's name) (converted)

SMILES: CC(C)=CC(=O)O[C@@H]1CC(C)(C)C[C@H]2C3=CC[C@@H]4[C@@]5(C)CC[C@H](O)C(C)(C)[C@@H]5CC[C@@]4(C)[C@]3(C)CC[C@@]12C(=O)O [Reduced Lantadene B]
- GI50 (HT-29 [1]; read-out: GI50): 4.24 µM
- LC50 (50% cell kill) (HT-29 [1]; read-out: LC50): > 100 µM
- TGI (HT-29 [1]; read-out: TGI): 27.1 µM
- GI50 (HT-29 [1]; read-out: pGI50 (converted)): 4.27 µM
- LC50 (50% cell kill) (HT-29 [1]; read-out: pLC50 (converted)): > 100 µM
- TGI (HT-29 [1]; read-out: pTGI (converted)): 26.9 µM
- GI50 (NCI-H226; read-out: GI50): 5.09 µM
- LC50 (NCI-H226; read-out: LC50): 86 µM
- TGI (NCI-H226; read-out: TGI): 24.2 µM
- GI50 (NCI-H226; read-out: pGI50 (converted)): 5.13 µM
- LC50 (NCI-H226; read-out: pLC50 (converted)): 85.1 µM
- TGI (NCI-H226; read-out: pTGI (converted)): 24 µM
- GI50 (HL-60(TB) [2]; read-out: GI50): 2.52 µM
- CC50 (HL-60(TB) [2]; [22]): 86.3 µM
- TGI (HL-60(TB) [2]; read-out: TGI): 6.86 µM
- GI50 (HL-60(TB) [2]; read-out: pGI50 (converted)): 2.51 µM
- CC50 (HL-60(TB) [2]; [23]): 87.1 µM
- TGI (HL-60(TB) [2]; read-out: pTGI (converted)): 6.92 µM
- growth at 0.01 µM (UACC-257 [3]): 96%
- growth at 0.01 µM (Malme-3M): 94%
- growth at 0.01 µM (SNB-75 [4]): 85%
- growth at 0.01 µM (HCT-15 [5]): 93%
- growth at 0.01 µM (RPMI-8226): 100%
- growth at 0.01 µM (HL-60(TB) [6]): 101%
- GI50 (MDA-MB-468 [7]; read-out: GI50): 4.17 µM
- CC50 (MDA-MB-468 [7]; [22]): 57.1 µM
- TGI (MDA-MB-468 [7]; read-out: TGI): 20.2 µM
- GI50 (MDA-MB-468 [7]; read-out: pGI50 (converted)): 4.17 µM
- CC50 (MDA-MB-468 [7]; [23]): 57.5 µM
- TGI (MDA-MB-468 [7]; read-out: pTGI (converted)): 20 µM
- GI50 (DU-145 [8]; read-out: GI50): 7.7 µM
- CC50 (DU-145 [8]; [22]): 61.6 µM
- TGI (DU-145 [8]; read-out: TGI): 23.5 µM
- GI50 (DU-145 [8]; read-out: pGI50 (converted)): 7.76 µM
- CC50 (DU-145 [8]; [23]): 61.7 µM
- TGI (DU-145 [8]; read-out: pTGI (converted)): 23.4 µM
- growth at 100 µM (MDA-MB-468 [9]): -77%
- growth at 100 µM [10]: -45%
- growth at 100 µM (CAKI-1): -9%
- growth at 100 µM (OVCAR-4): -39%
- growth at 100 µM (UACC-257 [11]): -34%
- growth at 100 µM (SK-MEL-28): -64%
- growth at 100 µM (SF-539): -38%
- growth at 100 µM (SF-295): -71%
- growth at 100 µM (NCI-H460): -4%
- growth at 100 µM (MOLT-4): -43%
- growth at 100 µM (HL-60(TB) [12]): -52%
- growth at 1 µM (T47D): 96%
- growth at 1 µM (PC-3): 67%
- growth at 1 µM (DU-145 [13]): 94%
- growth at 1 µM (A498 [14]): 79%
- growth at 1 µM (SK-OV-3 [15]): 104%
- growth at 1 µM (SNB-75 [16]): 85%
- growth at 1 µM (KM12): 48%
- growth at 1 µM (HCT-15 [17]): 58%
- growth at 1 µM (SR): 92%
- growth at 0.1 µM [18]: 97%
- growth at 0.1 µM (MCF7): 98%
- growth at 0.1 µM (ACHN): 93%
- growth at 0.1 µM (SK-OV-3 [19]): 103%
- growth at 0.1 µM (IGROV-1): 106%
- growth at 0.1 µM (SW-620): 95%
- growth at 0.1 µM (HT-29 [20]): 95%
- growth at 0.1 µM (COLO 205): 97%
- growth at 0.1 µM (HOP-62): 87%
- growth at 0.1 µM (A549): 79%
- growth at 0.01 µM (A498 [21]): 84%
- growth at 0.01 µM (OVCAR-8): 101%
